Source: PubChem BioAssay (NCI)
Several values for one entry are separate records, joined by “and”; a condition that tells them apart may be missing. Equal entries are not always repeated.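 Assay format: 96-well plates, 48-hour exposure. GI50: concentration for 50% inhibition of growth. TGI denotes the concentration required for complete inhibition of growth.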

Assays:
Assay in all cases: NCI-60 cell line screen, 48 h
786-0 renal = tested on: 786-0 renal
CCRF-CEM leukemia = tested on: CCRF-CEM leukemia
COLO 205 colon = tested on: COLO 205 colon
HCT-116 colon = tested on: HCT-116 colon
HL-60(TB) leukemia = tested on: HL-60(TB) leukemia
HOP-92 NSCLC = tested on: HOP-92 NSCLC
LOX IMVI melanoma = tested on: LOX IMVI melanoma
OVCAR-5 ovarian = tested on: OVCAR-5 ovarian
SK-MEL-2 melanoma = tested on: SK-MEL-2 melanoma
SK-MEL-5 melanoma = tested on: SK-MEL-5 melanoma
SK-OV-3 ovarian = tested on: SK-OV-3 ovarian
SNB-75 CNS = tested on: SNB-75 CNS
UO-31 renal = tested on: UO-31 renal
RXF 393 renal = tested on: RXF 393 renal

Structure (SMILES) | TGI (786-0 renal) [µM] | TGI (CCRF-CEM leukemia) [µM] | TGI (COLO 205 colon) | TGI (HCT-116 colon) [µM] | TGI (HL-60(TB) leukemia) [µM] | TGI (HOP-92 NSCLC) [µM] | TGI (LOX IMVI melanoma) [µM] | TGI (OVCAR-5 ovarian) [µM] | TGI (SK-MEL-2 melanoma) [µM] | TGI (SK-MEL-5 melanoma) [µM] | TGI (SK-OV-3 ovarian) | TGI (SNB-75 CNS) [µM] | TGI (UO-31 renal) [µM] | TGI (RXF 393 renal) [µM] | GI50 (HCT-116 colon) | GI50 (RXF 393 renal) [nM]
COc1ccc(C2=NC(CO)[C@H](c3ccccc3)O2)cc1OC (some centres undefined) | > 100 | > 100 | > 100 µM | > 100 | > 100 | > 100 | > 100 | > 100 | > 100 | > 100 | > 100 µM | > 100 | > 100 | – | – | –
O=C(CC(=O)n1nc(-c2ccccc2)c(N=Nc2ccc([N+](=O)[O-])cc2)c1-c1ccccc1)Nc1ccc(Cl)cc1 | > 100 | 97 | 34.9 µM | > 100 | 70.4 | 52.3 | > 100 | > 100 | > 100 | 22.3 | 42.3 µM | > 100 | 45.1 | 51.3 | – | –
CC(=O)NC1=C(NCCO)C(=O)c2ccccc2C1=O | > 50 | > 50 | > 50 µM | > 50 | > 50 | – | > 50 | – | > 50 | > 50 | > 50 µM | > 50 | > 50 | > 50 | – | –
COc1cc(Br)c(C=Nc2cccc3ccc(OS(=O)(=O)c4ccc([N+](=O)[O-])cc4)cc23)cc1OC | > 100 | > 100 | > 100 µM | > 100 | – | > 100 | > 100 | > 100 | > 100 | > 100 | > 100 µM | – | > 100 | > 100 | – | –
O=C1C[C@@H]2[C@@H](C=CC23CCCC3)N1O | > 100 | > 100 | > 100 µM | > 100 | > 100 | – | > 100 | > 100 | > 100 | > 100 | > 100 µM | > 100 | > 100 | > 100 | – | –
CN(C)c1ccc(-c2nc(N)nc3c2CCCC3)cc1 | > 100 | > 100 | > 100 µM | > 100 | > 100 | – | > 100 | > 100 | > 100 | > 100 | > 100 µM | > 100 | > 100 | > 100 | – | –
COc1cc2c(c(OC)c1OC)[C@@H]1CCCCC[C@@H]1CCC2=O | > 100 | > 77.8 | > 77.3 µM | > 100 | > 63.4 | > 100 | 38.9 | > 100 | > 100 | > 100 | > 100 µM | > 100 | > 100 | > 100 | – | –
COc1cc(CNc2ccc(C)cc2)cc(OC)c1OC | > 44.9 | > 83.6 | 0.385 µM and 1.11 µM | – | – | > 100 | > 100 | > 100 | > 100 | > 100 | 0.825 µM and 1.3 µM | > 100 | > 100 | – | 333 nM and 816 nM | 239
Nc1ccc(C(=O)NN2C(=O)C(Cl)C2c2ccc(O)cc2)cc1 (centres undefined) | 31.3 | 33.8 | 33.4 µM | 44 | 33.7 | 41.8 | 22.7 | 46.6 | 31.4 | 31 | 46.1 µM | 70.4 | 57.9 | – | – | –
COc1c(O)ccc(/C=N/NC(=S)NCOCCOC(C)=O)c1OC | > 100 | > 100 | > 100 µM | > 100 | > 100 | > 100 | > 100 | > 100 | > 100 | > 100 | > 100 µM | > 100 | > 100 | > 100 | – | –
CC[n+]1c(/C=C/c2cc(C(=O)OC)n3c2sc2ccccc23)sc2ccccc21 | 38.6 | 32.6 | 65.8 µM | 37.1 | 98.4 | 31.6 | 40.5 | 37.3 | 39 | 28.9 | 34 µM | 32.5 | 35.1 | – | – | –
COc1cc(C(C)c2cc3c(cc2OCCCCCOc2cc4c(cc2C(C)c2cc(OC)c(OC)c(OC)c2)OCO4)OCO3)cc(OC)c1OC (centres undefined) | > 100 | > 100 | – | > 100 | > 100 | – | > 100 | > 100 | > 100 | > 100 | – | > 100 | > 100 | > 100 | – | –
C=Cc1c(-c2ccccc2)cnc2[nH]c3ccccc3c12 | > 50 | > 50 | > 50 µM | > 50 | > 50 | – | > 50 | > 50 | > 50 | > 50 | > 50 µM | 46 | > 50 | > 50 | – | –
COC(=O)C(C(=O)C(=O)Nc1nc2ccc(OC)cc2s1)c1cnc2ccccc2n1 (centres undefined) | > 100 | – | > 100 µM | > 100 | – | > 100 | > 100 | > 100 | – | > 100 | > 100 µM | > 100 | > 100 | > 100 | – | –
